According to ChEMBL document CHEMBL1201862, “PubChem BioAssay data set” (2004):
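Method: 48-hour compound exposure of cells in 96-well plates, five concentrations, linear interpolation of endpoints. GI50 is the concentration that inhibits growth by half.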 The source made the active and inactive calls. Cut-off read from the data, not from the text of the source: active = GI50 up to about 1.1 µM and inactive = higher.

Tests used:
Assay in all cases: NCI anticancer screen, dose series, 48 h
MCF7 = tested on: MCF7
MDA-MB-435 = tested on: MDA-MB-435
SK-OV-3 = tested on: SK-OV-3
SNB-75 = tested on: SNB-75
HT-29 = tested on: HT-29
SN12C = tested on: SN12C
NCI-H460 = tested on: NCI-H460
RPMI-8226 = tested on: RPMI-8226
A549 = tested on: A549
U-251 = tested on: U-251
OVCAR-5 = tested on: OVCAR-5
NCI/ADR-RES = tested on: NCI/ADR-RES
DU-145 = tested on: DU-145
MDA-N = tested on: MDA-N
SF-539 = tested on: SF-539
SW-620 = tested on: SW-620
M14 = tested on: M14
SK-MEL-5 = tested on: SK-MEL-5
BT-549 = tested on: BT-549
HCT-116 = tested on: HCT-116

In the case of `CC(NC(=O)C(CC(=O)OCc1ccccc1)NC(=O)OCc1ccccc1)c1ccccc1` (configuration not stated), the GI50 (MCF7) is reported as > 100 µM (inactive), the GI50 (MDA-MB-435) is reported as > 100 µM (inactive) and the GI50 (SK-OV-3) is reported as 83.2 µM (inactive). For the same compound, the GI50 (SNB-75) was > 100 µM (inactive), the GI50 (HT-29) was > 100 µM (inactive) and the GI50 (SN12C) was > 100 µM (inactive). For the same compound, the GI50 (NCI-H460) was > 100 µM (inactive), the GI50 (RPMI-8226) was > 100 µM (inactive) and the GI50 (A549) was 73.5 µM (inactive). The GI50 (U-251) was > 100 µM (inactive), the GI50 (OVCAR-5) was > 100 µM (inactive) and the GI50 (NCI/ADR-RES) was > 100 µM (inactive). The GI50 (DU-145) was > 100 µM (inactive), the GI50 (MDA-N) was > 100 µM (inactive) and the GI50 (SF-539) was 64.3 µM (inactive). The GI50 (SW-620) was > 100 µM (inactive), the GI50 (M14) was 27.7 µM (inactive) and the GI50 (SK-MEL-5) was > 100 µM (inactive). The GI50 (BT-549) was > 100 µM (inactive).
With `O=C(O)c1c2c(cc3c1CC1(Cc4ccccc4C1)C3)CCC2` the GI50 (MCF7) was 96.2 µM (inactive), the GI50 (MDA-MB-435) was > 100 µM (inactive) and the GI50 (SK-OV-3) was > 100 µM (inactive). For the same compound, the GI50 (SNB-75) was > 100 µM (inactive), the GI50 (HT-29) was 73.8 µM (inactive) and the GI50 (SN12C) was 67.6 µM (inactive). The GI50 (NCI-H460) was 25.9 µM (inactive), the GI50 (RPMI-8226) was 33.9 µM (inactive) and the GI50 (A549) was 35.6 µM (inactive). The GI50 (U-251) was 42.6 µM (inactive), the GI50 (OVCAR-5) was > 100 µM (inactive) and the GI50 (NCI/ADR-RES) was 35.4 µM (inactive). The GI50 (DU-145) was 66.5 µM (inactive), the GI50 (MDA-N) was > 100 µM (inactive) and the GI50 (SF-539) was > 100 µM (inactive). For the same compound, the GI50 (SW-620) was > 100 µM (inactive), the GI50 (SK-MEL-5) was 59.7 µM (inactive) and the GI50 (BT-549) was 20.8 µM (inactive). The GI50 (HCT-116) was > 10 µM (inactive).
In the case of `CCOP(=O)(OCC)/C(C#N)=C/c1nccn1C`, the GI50 (MCF7) is reported as > 100 µM (inactive), the GI50 (MDA-MB-435) is reported as > 100 µM (inactive) and the GI50 (SNB-75) is reported as > 100 µM (inactive). The GI50 (HT-29) was > 100 µM (inactive), the GI50 (SN12C) was > 100 µM (inactive) and the GI50 (NCI-H460) was > 100 µM (inactive). The GI50 (RPMI-8226) was > 100 µM (inactive), the GI50 (A549) was > 100 µM (inactive) and the GI50 (U-251) was > 100 µM (inactive). For the same compound, the GI50 (OVCAR-5) was > 100 µM (inactive), the GI50 (NCI/ADR-RES) was > 100 µM (inactive) and the GI50 (DU-145) was > 100 µM (inactive). For the same compound, the GI50 (MDA-N) was > 100 µM (inactive), the GI50 (SF-539) was > 100 µM (inactive) and the GI50 (SW-620) was > 100 µM (inactive). The GI50 (M14) was > 100 µM (inactive), the GI50 (BT-549) was > 100 µM (inactive) and the GI50 (HCT-116) was > 100 µM (inactive).
In the case of `CC1(C)C=C(/C=N/Nc2ccc([N+](=O)[O-])cc2)C(C#N)=C(O)C1(C#N)C#N`, the GI50 (MCF7) is reported as > 100 µM (inactive), the GI50 (MDA-MB-435) is reported as > 100 µM (inactive) and the GI50 (SK-OV-3) is reported as > 100 µM (inactive). The GI50 (SNB-75) was > 100 µM (inactive), the GI50 (HT-29) was > 100 µM (inactive) and the GI50 (SN12C) was > 100 µM (inactive). For the same compound, the GI50 (NCI-H460) was > 100 µM (inactive), the GI50 (RPMI-8226) was > 100 µM (inactive) and the GI50 (A549) was > 100 µM (inactive). The GI50 (U-251) was > 100 µM (inactive), the GI50 (OVCAR-5) was > 100 µM (inactive) and the GI50 (NCI/ADR-RES) was > 100 µM (inactive). The GI50 (DU-145) was > 100 µM (inactive), the GI50 (MDA-N) was > 100 µM (inactive) and the GI50 (SF-539) was > 100 µM (inactive). The GI50 (SW-620) was > 100 µM (inactive), the GI50 (M14) was > 100 µM (inactive) and the GI50 (SK-MEL-5) was > 100 µM (inactive). For the same compound, the GI50 (BT-549) was > 100 µM (inactive) and the GI50 (HCT-116) was > 100 µM (inactive).
In the case of `COc1ccc(/C=N/n2c(C)n[nH]c2=O)cc1`, the GI50 (MCF7) is reported as > 100 µM (inactive), the GI50 (MDA-MB-435) is reported as > 100 µM (inactive) and the GI50 (SK-OV-3) is reported as > 100 µM (inactive). For the same compound, the GI50 (SNB-75) was > 100 µM (inactive), the GI50 (HT-29) was > 100 µM (inactive) and the GI50 (SN12C) was > 100 µM (inactive). For the same compound, the GI50 (NCI-H460) was > 100 µM (inactive), the GI50 (RPMI-8226) was > 100 µM (inactive) and the GI50 (A549) was > 100 µM (inactive). The GI50 (U-251) was > 100 µM (inactive), the GI50 (OVCAR-5) was > 100 µM (inactive) and the GI50 (NCI/ADR-RES) was > 100 µM (inactive). For the same compound, the GI50 (DU-145) was > 100 µM (inactive), the GI50 (MDA-N) was > 100 µM (inactive) and the GI50 (SF-539) was > 100 µM (inactive). For the same compound, the GI50 (SW-620) was > 100 µM (inactive), the GI50 (M14) was > 100 µM (inactive) and the GI50 (BT-549) was > 100 µM (inactive). The GI50 (HCT-116) was > 100 µM (inactive).
For `CN(C)/C=N/CCN1CCOCC1`, the GI50 (MCF7) was > 100 µM (inactive), the GI50 (MDA-MB-435) was > 100 µM (inactive) and the GI50 (SK-OV-3) was > 100 µM (inactive). For the same compound, the GI50 (SNB-75) was 97.7 µM (inactive), the GI50 (HT-29) was > 100 µM (inactive) and the GI50 (SN12C) was > 100 µM (inactive). The GI50 (RPMI-8226) was > 100 µM (inactive), the GI50 (A549) was > 100 µM (inactive) and the GI50 (U-251) was > 100 µM (inactive). For the same compound, the GI50 (OVCAR-5) was > 100 µM (inactive), the GI50 (NCI/ADR-RES) was > 100 µM (inactive) and the GI50 (DU-145) was > 100 µM (inactive). The GI50 (MDA-N) was > 100 µM (inactive), the GI50 (SF-539) was > 100 µM (inactive) and the GI50 (M14) was > 100 µM (inactive). For the same compound, the GI50 (SK-MEL-5) was > 100 µM (inactive), the GI50 (BT-549) was > 100 µM (inactive) and the GI50 (HCT-116) was > 100 µM (inactive).
For `O=C1c2c(O)cccc2Cc2cc(CO)cc(O)c21`, the GI50 (MCF7) was 2.58 µM (inactive), the GI50 (MDA-MB-435) was 2.67 µM (inactive) and the GI50 (SK-OV-3) was 3.19 µM (inactive). For the same compound, the GI50 (SNB-75) was 1.05 µM (active), the GI50 (HT-29) was 3.48 µM (inactive) and the GI50 (SN12C) was 3.38 µM (inactive). For the same compound, the GI50 (NCI-H460) was 0.619 µM (active), the GI50 (RPMI-8226) was 0.743 µM (active) and the GI50 (A549) was 2.92 µM (inactive). The GI50 (U-251) was 1.34 µM (inactive), the GI50 (OVCAR-5) was 4.02 µM (inactive) and the GI50 (NCI/ADR-RES) was 3.59 µM (inactive). For the same compound, the GI50 (DU-145) was 3.86 µM (inactive), the GI50 (MDA-N) was 2.74 µM (inactive) and the GI50 (SW-620) was 4.06 µM (inactive). The GI50 (M14) was 2.31 µM (inactive), the GI50 (SK-MEL-5) was 1.69 µM (inactive) and the GI50 (BT-549) was 2.01 µM (inactive). For the same compound, the GI50 (HCT-116) was 2.31 µM (inactive).
